Experimental data as given in US20180111893A1, “POLYCATIONIC AMPHIPHILES AND POLYMERS THEREOF AS ANTIMICROBIAL AGENTS AND METHODS USING SAME” (Temple University-Of The Commonwealth System of Higher …, priority 2015, published 2018).

Legend:
[1] = test system: Staphylococcus aureus (MSSA) biofilms; experiment: Minimum biofilm eradication concentration (MBEC), regrowth assay; type: cell-based; set-up: MBEC MSSA: unit not given here; conditions: Table 5; regrowth OD under 0.1 (italics: OD < 0.5)
Description: (§1) A regrowth assay was used to establish the MBEC of a compound to evaluate the antibiofilm activity. See also H. Ceri, M. Olson, D. Morck, D. Storey, R. Read, A. Buret, B. Olson, Methods Enzymol. 2001, 337, 377, which is incorporated by reference herein in its entirety.
(§2) To each well of a flat-bottomed 96-well plate (Corning 3370), 8 μL of overnight bacterial culture was brought to a volume of 200 μL with fresh media (BHI for MSSA and MRSA). Plates were incubated statically for 24 hours at 37° C. to establish biofilms. After 24 hours, the wells were carefully emptied by inverting the plate and gently shaking. A pre-mixed solution of media and compound stock solution was added to each well and plates were incubated at 37° C. 16 hours after pre-established biofilms were treated with compound, the media from each well was removed, biofilms were washed three times with 200 μL PBS to remove planktonic cells, and biofilms were incubated overnight at 37° C. in 200 μL of fresh media to allow any viable cells to continue growing. The wells were then vigorously pipetted to resuspend the biofilm cells and the OD at 595 nm was measured using a plate reader (POLARstar Omega, BMG Labtech). Biofilms reaching a final OD of less than 0.1 were considered eradicated and the lowest concentration of antibiotic corresponded to the MBEC. Four replicates were completed for each concentration of compound as well as positive and negative controls.

[2] = test system: MRSA biofilms (S. aureus USA300-0114); experiment: as above; type: cell-based, Staphylococcus aureus; set-up: MBEC MRSA: unit not given here; conditions: Table 5; regrowth OD under 0.1 (italics: OD < 0.5)
Description: as §1, §2

[3] = test system: six bacteria (SA, HA-MRSA, CA-MRSA, EF, EC, PA); experiment: MIC against the panel of bacteria tested; type: cell-based; conditions: for antimicrobial activity: quinine- and nicotine-derived QACs, in words
Description: (§3) As used herein, the term “minimum inhibitory concentration (MIC)” refers to the lowest concentration of an antimicrobial agent that will inhibit the visible growth of a microorganism after overnight incubation. MIC values against bacteria, for example, the Gram-positive Staphylococcus aureus and Enterococcus faecalis and the Gram-negative Escherichia coli and Pseudomonas aeruginosa were determined by standard methods. See also P. A. Wayne, Methods for Dilution Antimicrobial Tests for Bacteria that Grow Aerobically; Approved Standard, Ninth Edition, 2012, CLSI Document M07-A9, Vol. 32 No. 2, which is incorporated by reference herein in its entirety.
The complete set of MIC values against six bacteria [Staphylococcus aureus (SA), hospital-acquired methicillin-resistant SA (HA-MRSA), community-acquired methicillin-resistant SA (CA-MRSA), Enterococcus faecalis (EF), Escherichia coli (EC), and Pseudomonas aeruginosa (PA)] is presented in Table 3, wherein multiQACs are grouped with their monoQAC counterparts. The dye-based QACs with greatest inhibition of the complete range of Gram-positive and Gram-negative bacteria featured bis- or tris-quaternization, with the optimal alkyl total ranging from 17-24 carbons. For example, comparison of two biscationic series -LMG-n,1 and LMG-n,n—evaluates the effect of total alkyl chain length in retention of efficacy against the more challenging CA-MRSA and the Gram-negative strains EC and PA.
(§4) Compounds were serially diluted two-fold from a 10% DMSO/aqueous stock solution to yield twelve test concentrations. Overnight S. aureus, E. faecalis, E. coli, P. aeruginosa, CA-MRSA, and HA-MRSA cultures diluted to ca. 10^6 cfu/mL in Mueller-Hinton media and 100 μL were inoculated into each well of a U-bottom 96-well plate (BD Biosciences, BD351177) containing 100 μL of compound solution. Plates were incubated statically at 37° C. for 72 hours upon which time wells were evaluated visually for bacterial growth. The MIC was determined as the lowest concentration of compound resulting in no bacterial growth visible to the naked eye, based on the majority of three independent experiments. Positive and negative DMSO/aqueous solution and media controls were conducted for each trial. See Peng et al., 2011, Chem. Comm. 47:4896-4898.

[4] = test system: Staphylococcus aureus (SA; MSSA SH1000); experiment: Minimum inhibitory concentration (MIC); type: cell-based; conditions: Table 6
Description: as §3, §4
as §4, with “trial.” for “trial. See Peng et al., 2011, Chem. Comm. 47:4896-4898.”

[5] = test system: community-acquired methicillin-resistant Staphylococcus aureus CA-MRSA (USA300-0114); experiment: Minimum inhibitory concentration (MIC); type: cell-based; conditions: Table 6
Description: as §3, §4
as §4, with “trial.” for “trial. See Peng et al., 2011, Chem. Comm. 47:4896-4898.”

[6] = test system: Enterococcus faecalis (OG1RF); experiment: Minimum inhibitory concentration (MIC); type: cell-based; conditions: Table 6
Description: as §3, §4
as §4, with “trial.” for “trial. See Peng et al., 2011, Chem. Comm. 47:4896-4898.”

[7] = test system: Escherichia coli (MC4100); experiment: Minimum inhibitory concentration (MIC); type: cell-based; conditions: Table 6
Description: as §3, §4
as §4, with “trial.” for “trial. See Peng et al., 2011, Chem. Comm. 47:4896-4898.”

[8] = test system: Pseudomonas aeruginosa (PAO1); experiment: Minimum inhibitory concentration (MIC); type: cell-based; conditions: Table 6
Description: as §3, §4
as §4, with “trial.” for “trial. See Peng et al., 2011, Chem. Comm. 47:4896-4898.”

[9] = test system: hospital-acquired methicillin-resistant Staphylococcus aureus HA-MRSA (ATCC 33591); experiment: Minimum inhibitory concentration (MIC); type: cell-based; conditions: Table 6
Description: as §3, §4
as §4, with “trial.” for “trial. See Peng et al., 2011, Chem. Comm. 47:4896-4898.”

## CCCCCCCCCCCCCCCCCCCC[N+]1(C)CC[N+](C)(C)CC[N+](C)(C)CC1 [C-20,1,1]
[1]
  MBEC MSSA: >200
[2]
  MBEC MRSA: >200

## C[n+]1cccc([C@@H]2CCC[N+]2(C)C)c1 [N-1,1]
[3]
  antimicrobial activity: essentially no antimicrobial activity

## CCCCCCCCCCCCCCCCCC[N+]1(C)CC[N+](C)(C)CC[N+](C)(C)CC1 [C-18,1,1]
[1]
  MBEC MSSA: >200
[2]
  MBEC MRSA: >200

## CCCCCCCCCCCCCCCC[n+]1cccc([C@@H]2CCCN2C)c1.[Br-] [N-16,0]
[3]; all bacteria except for P. aeruginosa
  low micromolar activity: 4 µM

## CCCCCCCCCCCCCCCCCC[N+]1(C)CCN(C)CCN(C)CC1.[Br-] [C-18,0,0]
[1]
  MBEC MSSA: 200
[2]
  MBEC MRSA: >200

## CCCCCCCCCCC[N+](C)(C)CCN1CC[N+](C)(CCCCCCCCCCC)CC1 [P-11,0,11]
[1]
  MBEC MSSA: 100
[2]
  MBEC MRSA: 200

## C=CC1C[N+]2(C)CCC1C[C@H]2[C@@H](O)c1cc[n+](C)c2ccc(OC)cc12 (some centres unmarked) [Q-1,1]
[3]
  antimicrobial activity: essentially no antimicrobial activity

## CCCCCCCCCCC[N+](C)(C)CCC[N+](C)(CCC[N+](C)(C)CCCCCCCCCCC)CCC[N+](C)(C)CCCCCCCCCCC.[Br-].[Br-].[Br-].[I-] [sT-11,11,11,1]
[4]
  MIC SA: 0.5 µM
[5]
  MIC CA-MRSA: ≤0.25 µM
[6]
  MIC EF: 0.25 µM
[7]
  MIC EC: 0.25 µM
[8]
  MIC PA: 1 µM
[9]
  MIC HA-MRSA: 0.5 µM

## CCCCCCCCCCC[N+](C)(C)CCCN(CCC[N+](C)(C)CCCCCCCCCCC)CCC[N+](C)(C)CCCCCCCCCCC [sT-11,11,11,0]
[4]
  MIC SA: 0.5 µM
[5]
  MIC CA-MRSA: 0.5 µM
[6]
  MIC EF: 0.5 µM
[7]
  MIC EC: 0.5 µM
[8]
  MIC PA: 1 µM
[9]
  MIC HA-MRSA: 0.5 µM

## C=CC1C[N+]2(CCCCCCCCCCCCCC)CCC1C[C@H]2[C@@H](O)c1ccnc2ccc(OC)cc12.[Br-] (some centres unmarked) [Q-14,0]
[3]
  antimicrobial activity: strongest activity

## CCCCCCCCCCCCCCCC[N+]1(C)CCN(C)CCN(C)CC1.[Br-] [C-16,0,0]
[1]
  MBEC MSSA: >200
[2]
  MBEC MRSA: >200

## C=CC[N+](CCC[N+](C)(C)CCCCCCCCCCC)(CCC[N+](C)(C)CCCCCCCCCCC)CCC[N+](C)(C)CCCCCCCCCCC [sT-11,11,11,3A]
[4]
  MIC SA: 0.5 µM
[5]
  MIC CA-MRSA: 0.5 µM
[6]
  MIC EF: 0.5 µM
[7]
  MIC EC: 0.5 µM
[8]
  MIC PA: 1 µM
[9]
  MIC HA-MRSA: 1 µM
